Results as given in patent US20240374692A1, “A NOVEL ACYLATED INSULIN ANALOG” (SUNSHINE LAKE PHARMA CO., LTD., priority 2021, published 2024).

Test system: STZ-induced type I diabetes mellitus (T1DM) C57BL/6 mice
Test: Hypoglycemic effect, repeated administration (four times) to STZ-induced T1DM C57BL/6 mice (Example 5)
Type: in vivo
Design: key to random blood glucose: random blood glucose in mmol/L, Mean±SEM
Description: SPF grade C57BL/6 mice were reared in a suitable rearing box in a barrier environment, with a rearing temperature of 20-26° C., a humidity of 40-70%, a time between day and night of 12 h/12 h, and the mice had free access to standard food and autoclaved sterilization water. After a 3-day quarantine period and a 2-day acclimation period, the mice were fasted for 12 h, and the mice were injected intraperitoneally with streptozotocin solution (STZ, 13 mg/mL, in citrate buffer) or citrate buffer at 130 mg/kg (control group). 3 Days and 7 days after administration of streptozotocin, random blood glucose and fasting blood glucose were detected, and the random blood glucose value above 25 mmol/L and fasting blood glucose value above 11.1 mmol/L were selected as T1DM model mice for follow-up experiments. On the day before administration, random blood glucose was monitored and mice were weighed. Mice were divided into 4 groups according to random blood glucose and body weight.
Subcutaneous administration (S.C.) was used to administer the corresponding vehicle or drug, once every 4-5 days, for a total of 4 administrations. During the experiment, the animals were allowed to eat and drink water freely. The random blood glucose before the first administration, and 0.25, 0.5, 1, 2, 4, 6, 8, 10, 24, 48, 72, and 96 h after administration were assessed, as well as the random blood glucose before the second, third and fourth administration, and 1, 2, 4, 6, 8, 24, 48, 72, 96 and 120 h after administration.
All raw data were entered into Excel files and expressed as Mean±SEM. Statistical analysis of data was performed using Graphpad Prism 7.0 software, one-way or two-way ANOVA comparison method, and P<0.05 was used as the criterion for significant differences.

“A14E, B16E, B25H, B29K(N(ε)-COOH(CH2)18CO-L-Lys-CO(CH2)2CO—(OEG)2), desB30 human insulin analog [Insulin-a3]” was tested, and the “glucose control effect and effective glucose control time compared with Insulin-a1” value (1400 nmol/Kg S.C. four times) was “significantly better”, the “time after administration at which blood glucose reached the lowest level” value (1400 nmol/Kg S.C., Insulin-a1 each administration, Insulin-a3 first and second administrations) was 24 h and the “time after administration at which blood glucose reached the normal level” value (1400 nmol/Kg S.C., after the first and second administrations) was 96 h. The “time after administration at which blood glucose reached the normal level” value (1400 nmol/Kg S.C., after the third and fourth administrations) was 120 h, the random blood glucose (Day 0 (1st administration), 1400 nmol/Kg S.C. four times) was 31.3 ± 3.1 and the random blood glucose (Day 1, 1400 nmol/Kg S.C. four times) was 17.4 ± 6.7. The random blood glucose (Day 4 (2nd administration), 1400 nmol/Kg S.C. four times) was 26.9 ± 8.0, the random blood glucose (Day 5, 1400 nmol/Kg S.C. four times) was 7.1 ± 3.8 and the random blood glucose (Day 9 (3rd administration), 1400 nmol/Kg S.C. four times) was 26.2 ± 7.9. It also gave a random blood glucose (Day 10, 1400 nmol/Kg S.C. four times) of 8.6 ± 5.7, a random blood glucose (Day 14 (4th administration), 1400 nmol/Kg S.C. four times) of 24.4 ± 5.7 and a random blood glucose (Day 18, 1400 nmol/Kg S.C. four times) of 19.7 ± 6.4. The “time the effective glucose control effect can be maintained” value (repeated administration, C57BL6 mice modeled by STZ) was 4-5 days/time.
